# Experimental data reported in patent US8309590B2, “Triazol compounds for treating biofilm formation” (Novartis AG, priority 2007, dated 2012).
# Columns and labels:
# [1] = system: P. aeruginosa biofilm; test: short-term borosilicate glass tube biofilm model (OD 570 nm); type: cell-based, Pseudomonas aeruginosa
# Procedure: For this purpose, two short-term biofilm models relevant for the early stages of biofilm formation are used: borosilicate tubes and cover-slip method. In both models, the biofilm growth is studied with or without Compound I under either aerobic or anaerobic conditions and with or without added iron, i.e. 0, 10, 30 and 50 μM iron. The anti-biofilm effects of Compound I are looked at according to the standard methods, i.e. optical density, confocal imaging software, […] program, to allow analysis of biofilm structure in a 3 dimensional perspective. The imaging system and use of BacLight LIVE/DEAD staining (Molecular Probes) in the cover-slip experiments allow to look at the effects on both bacterial microcolonies and biofilm structure. Different concentrations of Compound I are assessed for their effect on aerobic and anaerobic (A) growth and (B) biofilm levels. Medium used is MMS supplemented with 0 or 10 μM FeCl3, as indicated (37° C., 24 h). Values shown represent the mean±SD of one representative experiment with 3 tubes per experiment. Different concentrations of Compound I are assessed for their effect on aerobic and anaerobic (A) growth and (B) biofilm levels. Medium used is MMS supplemented with 10 μM FeCl3 (37° C., 24 h). […] The effect of Compound I (1339 μM) on biofilm development in different iron concentrations, without Compound I (black columns) and with Compound I, 1339 μM (grey columns). […] The effects of Compound I on planktonic growth and biofilm development re assessed in the short-term borosilicate glass tube biofilm model. In this model, a biofilm is grown on a glass surface, and this is subsequently stained and solubilized. The optical density (OD: 570 nm) of the solution corresponds with the level of biofilm development. Using this model, bacterial growth and biofilm levels are determined after incubation (24 h, 37° C.) in minimal medium supplemented with succinate (MMS)+10 μM FeCl3 (aerobic and anaerobic atmospheres). […] It is investigated whether Compound I is impairing anaerobic biofilm development by directly reducing the level of iron in the medium, or whether it is acting by an iron-independent mechanism. Compound I at a concentration of 1339 μM is tested to see if it continued to impair anaerobic biofilm development as the concentration of iron is increased in the culture medium.
# [2] = system: exotoxin A (ETA) production by P. aeruginosa; test: virulence factor production: exotoxin A; type: cell-based, Pseudomonas aeruginosa; details: Compound I 1339 μM, MMS + 10 μM FeCl3, anaerobic, 24 h
# [3] = system: P. aeruginosa strain PAO1; test: MIC of tobramycin and colistin with and without Compound I; type: cell-based, Pseudomonas aeruginosa; details: Compound I 1339 μM, MMS + 10 μM FeCl3, aerobic and anaerobic atmospheres
# Procedure: The minimal inhibitory concentrations (MICs) of the aminoglycosides gentamycin and tobramycin are determined under aerobic and anaerobic conditions in the presence of no added iron or 30 μM iron, with or without Compound I, e.g. and/or with varying concentrations of Compound I). MICs are determined in MMS+10 μM FeCl3 supplemented with Compound I (1339 μM) (solid line) and without Compound I (dashed line). Values shown represent the mean±SD of a representative experiment with each condition tested in duplicate. The […] inhibitory concentrations (MICS) of two antibiotics commonly used antibiotics to treat CF individuals, tobramycin and colistin, are tested against P. aeruginosa. This is done in MMS+10 μM FeCl3 with and without Compound I (1339 μM) under aerobic and anaerobic atmospheres (FIG. 4).
# [4] = system: P. aeruginosa; test: planktonic growth in borosilicate glass tube model (OD 570 nm); type: cell-based, Pseudomonas aeruginosa
# Procedure: Growth with or without Compound I, e.g. at concentrations achieved in peripheral blood, under aerobic and anaerobic conditions with no added iron, 10, 30 and 50 μM iron. […] The effect of bacterial growth is determined using a standard method that involves inoculation of aliquots, e.g. 500 μL, of around 10^6 bacteria in minimal media with succinate into borosilicate glass tubes, e.g. 12×75 mm, that are them incubated under aerobic and anaerobic conditions, e.g. at 37° C. Each experiment is undertaken in triplicate and each borosilicate tube is removed at regular intervals, e.g. 0, 4, 8, 12, 16, 20 and 24 hours and the optical density at 570 nm of the culture used as an indicator of the level of growth. Anaerobic culture conditions are generated using the Anaerogen™ (Oxoid) system. For anaerobic experiments, parallel cultures are set up so that cultures are not transiently exposed to oxygen, i.e. seven parallel cultures to allow sampling at the required times. Different concentrations of Compound I are assessed for their effect on aerobic and anaerobic (A) growth and (B) biofilm levels. Medium used is MMS supplemented with 0 or 10 μM FeCl3, as indicated (37° C., 24 h). Values shown represent the mean±SD of one representative experiment with 3 tubes per experiment. Different concentrations of Compound I are assessed for their effect on aerobic and anaerobic (A) growth and (B) biofilm levels. Medium used is MMS supplemented with 10 μM FeCl3 (37° C., 24 h). […] The effects of Compound I on planktonic growth and biofilm development re assessed in the short-term borosilicate glass tube biofilm model. In this model, a biofilm is grown on a glass surface, and this is subsequently stained and solubilized. The optical density (OD: 570 nm) of the solution corresponds with the level of biofilm development. Using this model, bacterial growth and biofilm levels are determined after incubation (24 h, 37° C.) in minimal medium supplemented with succinate (MMS)+10 μM FeCl3 (aerobic and anaerobic atmospheres).
# [5] = system: phospholipase C production by P. aeruginosa; test: virulence factor production: phospholipase C; type: cell-based, Pseudomonas aeruginosa; details: Compound I 1339 μM, MMS + 10 μM FeCl3, anaerobic, 24 h
# [6] = solubility in MMS medium; type: physicochemical; details: MMS medium (pH 7.0)
# [7] = Compound I 0-100 μM, aerobic, MMS + 10 μM FeCl3, 24 h, 37° C.
# [8] = Compound I 0-100 μM, anaerobic, MMS + 10 μM FeCl3, 24 h, 37° C.
# [9] = higher concentration of Compound I (up to 6695 μM, via PEG 400), aerobic
# [10] = higher concentration of Compound I (up to 6695 μM, via PEG 400), anaerobic, P<0.05
smiles,measurement,setting,value
"O=C(O)c1ccc(-n2nc(-c3ccccc3O)nc2-c2ccccc2O)cc1 [Compound I, 4-[3,5-Bis-(2-hydroxyphenyl)-[1,2,4]-triazol-1-yl]benzoic acid]",effect on aerobic biofilm development,[1]; [7],does not impair
same,effect on anaerobic biofilm development,[1]; [8],does not impair
same,impairment of anaerobic biofilm development as iron concentration is increased,"[1]; Compound I 1339 μM, anaerobic, increasing iron levels in culture medium",becomes less effective
same,"effect on biofilm levels, higher concentration, aerobic",[1]; [9],not under aerobic conditions
same,"effect on biofilm levels, higher concentration, anaerobic",[1]; [10],significantly impair
same,effect on iron-induced increase of exotoxin A (ETA) production,[2],increase is negated
same,effect on MIC of colistin,[3],does not alter the MIC
same,effect on MIC of tobramycin,[3],does not alter the MIC
same,effect on aerobic growth,[4]; [7],does not impair
same,effect on anaerobic growth,[4]; [8],does not impair
same,"effect on growth, higher concentration, aerobic",[4]; [9],not under aerobic conditions
same,"effect on growth, higher concentration, anaerobic",[4]; [10],significantly impair
same,effect on iron-induced increase of phospholipase C production,[5],increase is negated
same,solubility in MMS medium,[6],low solubility
